Measured values from PubChem BioAssay AID2060502 (Molecular Pharmacology Branch, DTP, NCI, 2025).

Tested on: 885724-159-R-J1-PDC complex spheroid viability
Assay: Anticancer human tumor 885724-159-R-J1-PDC patient-derived pancreatic adenocarcinoma cell line growth inhibition [GQUAD]
Settings: for IC50: curve of first compound; for viability, T/C: stronger effect = lower value
Outline: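 Tumor cells were grown as complex spheroids with HUVEC endothelial cells and mesenchymal stem cells as stroma. G-quadruplex stabilizers were combined with targeted agents over half-log dilutions from near the clinical Cmax, or from 10 microM.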
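Further: spheroids exposed to agents for seven days before readout.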
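Wherever viability, T/C is given: percent of vehicle control viability where 100% = DMSO wells.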

Question: Which IC50 (second compound 0.0316 µM) does the source give for `COc1ncnc(C2CC2)c1-c1ncc2cnn(Cc3ccc(-c4nc(C(F)(F)F)cn4C(C)C)cc3)c2n1` + Cc1[nH]c2ccc(F)cc2c1-c1nc2c3cccnc3c3ncccc3c2[nH]1 here?
Answer: Its IC50 is > 10 µM.

Question: And the IC50 (second compound 0.1 µM)?
Answer: The IC50 was > 10 µM.

Question: And the IC50 (second compound 0.316 µM)?
Answer: The IC50 was > 10 µM.

Question: And the IC50 (second compound 1 µM)?
Answer: Its IC50 is > 10 µM.

Question: And the IC50 (second compound 3.16 µM)?
Answer: The IC50 was < 0.0316 µM.

Question: What about the IC50 (second compound 10 µM) of the same compound?
Answer: The IC50 was > 10 µM.

Question: And the viability, T/C (second compound 0.0316 µM, first compound 0.0316 µM)?
Answer: The viability, T/C was 85.5%.

Question: And the viability, T/C (second compound 0.0316 µM, first compound 0.1 µM)?
Answer: Its viability, T/C is 91.4%.

Question: What about the viability, T/C (second compound 0.0316 µM, first compound 0.316 µM) of the same compound?
Answer: Its viability, T/C is 93.7%.

Question: What about the viability, T/C (second compound 0.0316 µM, first compound 1 µM) of the same compound?
Answer: The viability, T/C was 81.8%.

Question: What about the viability, T/C (second compound 0.0316 µM, first compound 3.16 µM) of the same compound?
Answer: The viability, T/C was 89.9%.

Question: What about the viability, T/C (second compound 0.0316 µM, first compound 10 µM) of the same compound?
Answer: Its viability, T/C is 94%.

Question: And the viability, T/C (second compound 0.1 µM, first compound 0.0316 µM)?
Answer: Its viability, T/C is 101%.

Question: What about the viability, T/C (second compound 0.1 µM, first compound 0.1 µM) of the same compound?
Answer: Its viability, T/C is 90%.

Question: What about the viability, T/C (second compound 0.1 µM, first compound 0.316 µM) of the same compound?
Answer: Its viability, T/C is 86.3%.

Question: And the viability, T/C (second compound 0.1 µM, first compound 1 µM)?
Answer: The viability, T/C was 90.4%.

Question: What about the viability, T/C (second compound 0.1 µM, first compound 3.16 µM) of the same compound?
Answer: Its viability, T/C is 91.3%.

Question: And the viability, T/C (second compound 0.1 µM, first compound 10 µM)?
Answer: Its viability, T/C is 111%.

Question: And the viability, T/C (second compound 0.316 µM, first compound 0.0316 µM)?
Answer: The viability, T/C was 96.7%.

Question: What about the viability, T/C (second compound 0.316 µM, first compound 0.1 µM) of the same compound?
Answer: Its viability, T/C is 81.5%.

Question: What about the viability, T/C (second compound 0.316 µM, first compound 0.316 µM) of the same compound?
Answer: Its viability, T/C is 76.1%.

Question: And the viability, T/C (second compound 0.316 µM, first compound 1 µM)?
Answer: Its viability, T/C is 72.3%.

Question: And the viability, T/C (second compound 0.316 µM, first compound 3.16 µM)?
Answer: Its viability, T/C is 88%.

Question: What about the viability, T/C (second compound 0.316 µM, first compound 10 µM) of the same compound?
Answer: The viability, T/C was 82.3%.

Question: What about the viability, T/C (second compound 1 µM, first compound 0.0316 µM) of the same compound?
Answer: Its viability, T/C is 70.3%.

Question: And the viability, T/C (second compound 1 µM, first compound 0.1 µM)?
Answer: The viability, T/C was 65.8%.

Question: And the viability, T/C (second compound 1 µM, first compound 0.316 µM)?
Answer: Its viability, T/C is 62.8%.

Question: What about the viability, T/C (second compound 1 µM, first compound 1 µM) of the same compound?
Answer: Its viability, T/C is 56.3%.

Question: What about the viability, T/C (second compound 1 µM, first compound 3.16 µM) of the same compound?
Answer: Its viability, T/C is 70.5%.

Question: What about the viability, T/C (second compound 1 µM, first compound 10 µM) of the same compound?
Answer: Its viability, T/C is 67.8%.

Question: And the viability, T/C (second compound 3.16 µM, first compound 0.0316 µM)?
Answer: The viability, T/C was 23.7%.

Question: What about the viability, T/C (second compound 3.16 µM, first compound 0.1 µM) of the same compound?
Answer: Its viability, T/C is 12.7%.

Question: And the viability, T/C (second compound 3.16 µM, first compound 0.316 µM)?
Answer: The viability, T/C was 10.7%.

Question: What about the viability, T/C (second compound 3.16 µM, first compound 1 µM) of the same compound?
Answer: The viability, T/C was 8.78%.

Question: And the viability, T/C (second compound 3.16 µM, first compound 3.16 µM)?
Answer: Its viability, T/C is 11.8%.

Question: What about the viability, T/C (second compound 3.16 µM, first compound 10 µM) of the same compound?
Answer: The viability, T/C was 12.8%.

Question: And the viability, T/C (second compound 10 µM, first compound 0.0316 µM)?
Answer: Its viability, T/C is 69.6%.

Question: And the viability, T/C (second compound 10 µM, first compound 0.1 µM)?
Answer: Its viability, T/C is 66%.

Question: What about the viability, T/C (second compound 10 µM, first compound 0.316 µM) of the same compound?
Answer: Its viability, T/C is 63.7%.

Question: And the viability, T/C (second compound 10 µM, first compound 1 µM)?
Answer: Its viability, T/C is 72.1%.

Question: And the viability, T/C (second compound 10 µM, first compound 3.16 µM)?
Answer: The viability, T/C was 69.3%.

Question: And the viability, T/C (second compound 10 µM, first compound 10 µM)?
Answer: Its viability, T/C is 68.3%.
